Laboratory results published in article PMC6508583 (Journal of the American Chemical Society, 2019).
Values after ≈ are worked out from the molar mass of the structure shown. Values joined by “and” are separate entries in the source; they are usually repeats but may differ in a detail not shown here. Identical values can stand only once. Like-named read-outs stand apart in the source and are kept apart here.

How the values were obtained:
[1] = system: Cyt14 hybrid ribosome (decoding A site of the human cytoplasmic ribosome); type: biochemical; details: for Selectivity Cyt14: Cyt14 over wt bacterial ribosome; for IC50 Cyt 14: in vitro translation inhibition, Cyt14 hybrid ribosome
[2] = system: E. cloacae; assay: Antibacterial activity against reference strains: E. cloacae; type: cell-based; details: for Antibacterial activity (MIC) E. cloacae AG290: strain AG290
[3] = system: A1555G mutant mitochondrial hybrid ribosome; type: biochemical, human; details: for Selectivity A1555G: A1555G over wt bacterial ribosome; for IC50 A1555G: in vitro translation inhibition, A1555G mutant mitochondrial hybrid ribosome
[4] = system: A. baumannii; assay: Antibacterial activity against reference strains: A. baumannii; type: cell-based; details: strain AG225
[5] = system: NIH 3T3 mouse embryonic fibroblast cells; type: cell-based
[6] = system: K. pneumoniae; assay: Antibacterial activity against reference strains: K. pneumoniae; type: cell-based; details: strain AG215
[7] = system: P. aeruginosa; assay: Antibacterial activity against reference strains: P. aeruginosa; details: for Antibacterial activity (MIC) P. aeruginosa AG031: strain AG031 carries the APH(3’) gene
[8] = system: MRSA; assay: Antibacterial activity against reference strains: MRSA; type: cell-based; details: for Antibacterial activity (MIC) MRSA AG038: strain AG038; for Antibacterial activity (MIC) MRSA AG042: strain AG042 carries the AAC(6)’, ANT(4’,4’’) and APH(3’) genes
[9] = system: E. coli carrying specific resistance determinants; assay: Activity against wild-type and engineered E. coli carrying specific AMEs or RMTs; type: cell-based; details: for Activity (MIC) E. coli AG006: strain AG006, WT; for Activity (MIC) E. coli AG007: strain AG007, AAC(3); for Activity (MIC) E. coli AG008: strain AG008, ANT(2’’); for Activity (MIC) E. coli AG009: strain AG009, AAC(6’); for Activity (MIC) E. coli AG036: strain AG036, ANT(4′,4′′); for Activity (MIC) E. coli AG103: strain AG103, armA; for Activity (MIC) E. coli AG105: strain AG105, AAC(2′); for Activity (MIC) E. coli AG166: strain AG166, APH(3′); for MIC: Escherichia coli
[10] = system: wild-type bacterial ribosome; assay: Cell-free translation assay, wild-type bacterial ribosome; type: biochemical; details: in vitro translation inhibition
[11] = system: E. coli; assay: Antibacterial activity against reference strains: E. coli; details: for Antibacterial activity (MIC) E. coli AG001: strain AG001; for Antibacterial activity (MIC) E. coli AG003: strain AG003 carries the AAC(3) gene; for MIC: Escherichia coli
[12] = system: Mit13 hybrid ribosome (decoding A site of the human mitochondrial ribosome); type: biochemical; details: for Selectivity Mit 13: Mit13 over wt bacterial ribosome; for IC50 Mit13: in vitro translation inhibition, Mit13 hybrid ribosome
[13] = system: Mycobacterium tuberculosis clinical isolates; assay: microbe, parasite or virus in culture; type: cell-based; details: clinical isolates
[14] = system: Mycobacterium smegmatis wild type; assay: Antibacterial activity, wild-type M. smegmatis
[15] = system: E coli 70S ribosome (helix 44, A1408); assay: Quantitative dimethyl sulfate footprinting of the 70S ribosome; type: binding; details: read-out: apparent Kd; DMS footprinting, % protection of N1 of A1408, E. coli 70S ribosome
[16] = system: E coli; assay: Neutropenic mouse thigh infection model; type: in vivo; details: dose 3 mg.kg^−1
[17] = system: wild-type E. coli clinical isolates; assay: MIC distribution, clinical wild-type E. coli isolates; type: cell-based; details: panel of wild-type clinical isolates
[18] = system: E. coli; assay: Neutropenic mouse E. coli septicemia model; type: in vivo
[19] = system: K. pneumoniae clinical isolates carrying two or more resistance determinants; type: cell-based; details: AAC(3), AAC(6’)
[20] = system: E. coli clinical isolates carrying two or more resistance determinants; assay: Activity against E. coli clinical isolates with multiple resistance determinants; type: cell-based
[21] = system: E. cloacae clinical isolates carrying two or more resistance determinants; type: cell-based; details: AAC(6’)
[22] = system: Mycobacterium abscessus; assay: microbe, parasite or virus in culture; type: cell-based
[23] = system: wild-type K. pneumoniae clinical isolates; assay: MIC distribution, clinical wild-type K. pneumoniae isolates; type: cell-based; details: panel of wild-type clinical isolates
[24] = system: wild-type E. cloacae clinical isolates; assay: MIC distribution, clinical wild-type E. cloacae isolates; type: cell-based; details: panel of wild-type clinical isolates

In the case of `CCSC1C(CO)OC(OC2C(N)CC(N)C(O)C2OC2OC(CO)C(OC3OC(CN)C(O)C(O)C3N)C2O)C(N)C1O` (stereo not shown) [Compound 4, 4’-deoxy-4’-ethylthioparomomycin], the “Selectivity Cyt14” value [1] is reported as 1500, the “IC50 Cyt 14” value [1] is reported as 60 µg/mL (≈ 90.9 µM) and the “Antibacterial activity (MIC) E. cloacae AG290” value [2] is reported as 2 to 4 µg/mL. The “Selectivity A1555G” value [3] was 1150, the “IC50 A1555G” value [3] was 46 µg/mL (≈ 69.7 µM) and the “Antibacterial activity (MIC) A. baumannii AG225” value [4] was 4 µg/mL. The “loss of cell viability” value [5] was “only minimal loss of cell viability”, the “Antibacterial activity (MIC) K. pneumoniae AG215” value [6] was 2 µg/mL and the “Antibacterial activity (MIC) P. aeruginosa AG031” value [7] was 32 µg/mL. The “Antibacterial activity (MIC) MRSA AG038” value [8] was 4 µg/mL, the “Antibacterial activity (MIC) MRSA AG042” value [8] was 2 to 4 µg/mL and the “Activity (MIC) E. coli AG006” value [9] was 1 to 2 µg/mL. For the same compound, the “Activity (MIC) E. coli AG007” value [9] was 4 µg/mL, the “Activity (MIC) E. coli AG008” value [9] was 1 µg/mL and the “Activity (MIC) E. coli AG009” value [9] was 4 µg/mL. For the same compound, the “Activity (MIC) E. coli AG036” value [9] was 1 to 2 µg/mL, the “Activity (MIC) E. coli AG103” value [9] was 8 µg/mL and the “Activity (MIC) E. coli AG105” value [9] was 2 to 4 µg/mL. The “Activity (MIC) E. coli AG166” value [9] was 4 µg/mL, the IC50 wt [10] was 0.04 µg/mL (≈ 0.0606 µM) and the “Antibacterial activity (MIC) E. coli AG001” value [11] was 8 µg/mL. For the same compound, the “Antibacterial activity (MIC) E. coli AG003” value [11] was 8 µg/mL, the “Selectivity Mit 13” value [12] was 2775 and the “IC50 Mit13” value [12] was 111 µg/mL (≈ 168 µM).

For `CCC[C@H]1[C@H](O)[C@@H](N)[C@@H](O[C@H]2[C@H](O[C@@H]3O[C@H](CO)[C@@H](O[C@H]4O[C@@H](CN)[C@@H](O)[C@H](O)[C@H]4N)[C@H]3O)[C@@H](O)[C@H](N)C[C@@H]2N)O[C@@H]1CO` [Compound 5, 4’-deoxy-4’-propylparomomycin], the “MIC M. tuberculosis clinical isolates” value [13] was 1 µg/mL (≈ 1.56 µM), the “Antibacterial activity (MIC) Wild-type M. smegmatis” value [14] was 0.16 µg/mL and the Kd [15] was 340 ± 50 nM. The “Selectivity Cyt14” value [1] was 2133, the “IC50 Cyt 14” value [1] was 64 µg/mL (≈ 99.7 µM) and the “Antibacterial activity (MIC) E. cloacae AG290” value [2] was 0.5 to 1 µg/mL. The “Selectivity A1555G” value [3] was 1733, the “IC50 A1555G” value [3] was 52 µg/mL (≈ 81 µM) and the “log reduction in colony-forming units (CFUs) compared to vehicle” value [16] was 1.5 log. The “MIC90 E. coli” value [17] was 2 µg/mL (≈ 3.12 µM), the “Antibacterial activity (MIC) A. baumannii AG225” value [4] was 2 µg/mL and the “loss of cell viability” value [5] was “only minimal loss of cell viability”. The “Antibacterial activity (MIC) K. pneumoniae AG215” value [6] was 0.5 µg/mL, the “Antibacterial activity (MIC) P. aeruginosa AG031” value [7] was 8 µg/mL and the “Antibacterial activity (MIC) P. aeruginosa AG220” value ([7]; strain AG220 carries the APH(3’) gene) was 2 to 4 µg/mL. For the same compound, the “Antibacterial activity (MIC) MRSA AG038” value [8] was 1 to 2 µg/mL, the “Antibacterial activity (MIC) MRSA AG042” value [8] was 2 µg/mL and the “reduction of bacterial burden in the blood, more than the parent paromomycin at the same dose level” value ([18]; 4 mg.kg^−1) was 1 log. For the same compound, the “reduction of bacterial burden in the blood” value ([18]; 4 mg.kg^−1 dose) was “approximately 1.5 log units”, the “Activity (MIC) K. pneumoniae isolate 201440494” value [19] was 0.5 µg/mL and the “Activity (MIC) K. pneumoniae isolate 2014310114” value [19] was 0.25 µg/mL. For the same compound, the “Activity (MIC) K. pneumoniae isolate 2014310108” value ([19]; RmtB) was 1 µg/mL, the “Activity (MIC) E. coli AG006” value [9] was 0.5 to 1 µg/mL and the “Activity (MIC) E. coli AG007” value [9] was 2 µg/mL. For the same compound, the “Activity (MIC) E. coli AG008” value [9] was 0.5 to 1 µg/mL, the “Activity (MIC) E. coli AG009” value [9] was 1 to 2 µg/mL and the “Activity (MIC) E. coli AG036” value [9] was 1 µg/mL. The “Activity (MIC) E. coli AG103” value [9] was 2 µg/mL, the “Activity (MIC) E. coli AG105” value [9] was 1 µg/mL and the “Activity (MIC) E. coli AG166” value [9] was 1 to 2 µg/mL. The “Activity (MIC) E. coli isolate 201430298” value ([20]; AAC(3), AAC(6’)) was 1 µg/mL, the “Activity (MIC) E. coli isolate 2014251408” value ([20]; AAC(3), AAC(6’)) was 2 µg/mL and the “Activity (MIC) E. coli isolate 2014405344” value ([20]; AAC(3), APH(3’), RmtB) was 4 µg/mL. The “Activity (MIC) E. coli isolate 201441114” value ([20]; AAC(6’), ANT(2’’)) was 1 µg/mL, the IC50 wt [10] was 0.03 µg/mL (≈ 0.0467 µM) and the “Activity (MIC) E. cloacae isolate 201435487” value ([21]; AAC(3)) was 0.5 µg/mL. For the same compound, the “Activity (MIC) E. cloacae isolate 201333207” value ([21]; AAC(3), APH(3’)) was 0.5 µg/mL, the “Activity (MIC) E. cloacae isolate 201385168” value ([21]; AAC(3), RmtC) was 1 µg/mL and the “Activity (MIC) E. cloacae isolate 201430601” value ([21]; ANT(2’’)) was 0.5 µg/mL. For the same compound, the “Antibacterial activity (MIC) E. coli AG001” value [11] was 1 to 2 µg/mL, the “Antibacterial activity (MIC) E. coli AG003” value [11] was 1 to 2 µg/mL and the “Selectivity Mit 13” value [12] was 5567. The “IC50 Mit13” value [12] was 167 µg/mL (≈ 260 µM), the “MIC M. abscessus, AAC(2’) gene deleted” value ([22]; AAC(2’) gene deleted) was 4 µg/mL and 2 µg/mL and the “MIC M. abscessus” value ([22]; AAC(2’) gene present) was 4 µg/mL (≈ 6.23 µM). The “MIC90 K. pneumoniae” value [23] was 1 µg/mL (≈ 1.56 µM) and the “MIC90 E. cloacae” value [24] was 1 µg/mL (≈ 1.56 µM).

`CN[C@@H]1[C@@H](O)[C@@H](O[C@@H]2[C@@H](O)[C@H](O[C@H]3OC(CNCCO)=CC[C@H]3N)[C@@H](N)C[C@H]2NC(=O)[C@@H](O)CCN)OC[C@]1(C)O` [Plazomicin, reference compound] was tested, and the “Selectivity Cyt14” value [1] was 6983, the “IC50 Cyt 14” value [1] was 419 µg/mL (≈ 707 µM) and the MIC ([2]; Enterobacter cloacae, read-out: Antibacterial activity (MIC) E. cloacae AG290) was 0.5 µg/mL (≈ 0.844 µM). The “Selectivity A1555G” value [3] was 47, the “IC50 A1555G” value [3] was 2.8 µg/mL (≈ 4.72 µM) and the “log reduction in colony-forming units (CFUs) compared to vehicle” value [16] was “similar”. For the same compound, the MIC ([8]; Staphylococcus aureus, MRSA, read-out: Antibacterial activity (MIC) MRSA AG038) was 2 µg/mL (≈ 3.37 µM), the MIC ([9]; read-out: Activity (MIC) E. coli AG006) was 0.5 to 1 µg/mL (≈ 0.844 to 1.69 µM) and the MIC ([9]; read-out: Activity (MIC) E. coli AG007) was 2 µg/mL (≈ 3.37 µM). For the same compound, the MIC ([9]; read-out: Activity (MIC) E. coli AG008) was 0.5 to 1 µg/mL (≈ 0.844 to 1.69 µM), the MIC ([9]; read-out: Activity (MIC) E. coli AG009) was 2 µg/mL (≈ 3.37 µM) and the MIC ([9]; read-out: Activity (MIC) E. coli AG036) was 1 µg/mL (≈ 1.69 µM). For the same compound, the MIC ([9]; read-out: Activity (MIC) E. coli AG103) was over 128 µg/mL, the MIC ([9]; read-out: Activity (MIC) E. coli AG105) was 1 to 2 µg/mL (≈ 1.69 to 3.37 µM) and the MIC ([9]; read-out: Activity (MIC) E. coli AG166) was 1 µg/mL (≈ 1.69 µM). For the same compound, the IC50 wt [10] was 0.06 µg/mL (≈ 0.101 µM), the MIC ([11]; read-out: Antibacterial activity (MIC) E. coli AG001) was 2 µg/mL (≈ 3.37 µM) and the MIC ([11]; read-out: Antibacterial activity (MIC) E. coli AG003) was 2 to 4 µg/mL (≈ 3.37 to 6.75 µM). The “Selectivity Mit 13” value [12] was 833 and the “IC50 Mit13” value [12] was 50 µg/mL (≈ 84.4 µM).
